Test results published in patent publication US9604960B2, “Aryl, heteroaryl, and heterocycle substituted tetrahydroisoquinolines and use thereof” (Albany Molecular Research, Inc., priority 2009, dated 2017).

Experiments:
hDAT = hDAT (Homo sapiens (Human), UniProt Q01959); test: DAT radioligand binding assay ([125I]RTI-55); details: (+)-enantiomers; membranes of HEK-293 cells expressing hDAT
Procedure: Recombinant HEK-293 cells expressing either the hSERT, hDAT, or hNET proteins were harvested from T-175 flasks as follows. The medium was removed from the flasks and the cells rinsed with HBSS without Ca and without Mg. The cells were then incubated for 5-10 minutes in 10 mM Tris-Cl, pH 7.5, 5 mM EDTA before the cells were lifted with a combination of pipetting and scraping, as needed. The cell suspension was collected into centrifuge bottles and homogenized for 30 seconds with a Polytron homogenizer. The suspension was centrifuged for 30 minutes at 32,000×g, 4° C. The supernatant was decanted and the pellet resuspended and homogenized in 50 mM Tris-Cl, pH 7.5, 1 mM EDTA for 10 seconds. […]
(§1) Compounds were dissolved in 100% DMSO at a concentration 100 times the desired highest assay concentration, serially diluted 1:3 in 100% DMSO, and 0.4 μl/well of each solution was dispensed to a Nunc polypropylene, round bottom, 384-well plate. […] The plates were air-dried overnight, 12 μl/well of MicroScint scintillation fluid added, and the plates counted in a Trilux.
The raw data was normalized to percent inhibition using control wells defining 0% (DMSO only) and 100% (selective inhibitor) inhibition which were run on each plate. […] The radioligand concentration chosen for each assay corresponds to the Kd concentration determined through saturation binding analysis for each assay.

hSERT = hSERT (Homo sapiens (Human), UniProt P31645); test: SERT radioligand binding assay ([125I]RTI-55); details: (+)-enantiomers; membranes of HEK-293 cells expressing hSERT
Procedure: The medium was removed from the flasks and the cells rinsed with HBSS without Ca and without Mg. The cells were then incubated for 5-10 minutes in 10 mM Tris-Cl, pH 7.5, 5 mM EDTA before the cells were lifted with a combination of pipetting and scraping, as needed. The cell suspension was collected into centrifuge bottles and homogenized for 30 seconds with a Polytron homogenizer. The suspension was centrifuged for 30 minutes at 32,000×g, 4° C. The supernatant was decanted and the pellet resuspended and homogenized in 50 mM Tris-Cl, pH 7.5, 1 mM EDTA for 10 seconds. The suspension was then centrifuged again for 30 minutes at 32,000×g, 4° C. The supernatant was decanted and the pellet resuspended in 50 mM Tris-Cl, pH 7.5, 1 mM EDTA and briefly homogenized. A Bradford assay (Bio-rad) was performed and the membrane preparation diluted to 2 mg/ml with 50 mM Tris-Cl, pH 7.5, 1 mM EDTA. Aliquots were prepared, and then frozen and stored at −80° C.
as §1, with “Trilux. […]” for “Trilux.”

Male Swiss Webster mice = test: Mouse tail suspension assay; format: in vivo; details: acute administration, immobility
Procedure: Male Swiss Webster mice were housed 3-4 per cage in rooms maintained at a constant temperature (21-23° C.) and humidity (50±10%) on a 12-hour light/dark cycle. Animals had ad libitum access to water and food throughout studies. On the day of testing, they were brought into the testing room and allowed to acclimate for one hour. To begin testing, the tail was attached to a piece of tape which is then attached to a hook on the ceiling of a sound-attenuated chamber. Immobility was automatically recorded using the Med Associates software. Compounds were administered acutely at a fixed pretreatment interval before session.

Chain of hSERT (P31645 whole entry): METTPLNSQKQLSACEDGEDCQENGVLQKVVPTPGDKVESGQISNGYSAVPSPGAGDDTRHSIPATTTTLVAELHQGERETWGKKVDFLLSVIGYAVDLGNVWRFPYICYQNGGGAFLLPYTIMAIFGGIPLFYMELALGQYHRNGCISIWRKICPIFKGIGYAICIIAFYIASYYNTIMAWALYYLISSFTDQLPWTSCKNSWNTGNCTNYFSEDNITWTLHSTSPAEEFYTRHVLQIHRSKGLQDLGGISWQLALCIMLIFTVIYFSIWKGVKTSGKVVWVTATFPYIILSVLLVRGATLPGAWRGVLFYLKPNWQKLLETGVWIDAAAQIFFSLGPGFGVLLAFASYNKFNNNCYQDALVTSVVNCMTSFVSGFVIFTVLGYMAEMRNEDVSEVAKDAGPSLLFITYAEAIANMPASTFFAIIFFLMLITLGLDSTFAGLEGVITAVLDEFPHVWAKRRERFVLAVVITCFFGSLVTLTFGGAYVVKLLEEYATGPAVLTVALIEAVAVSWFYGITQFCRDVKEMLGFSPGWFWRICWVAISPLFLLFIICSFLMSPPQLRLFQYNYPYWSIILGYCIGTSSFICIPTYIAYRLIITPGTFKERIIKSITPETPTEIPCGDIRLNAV
Chain of hDAT (Q01959 whole entry): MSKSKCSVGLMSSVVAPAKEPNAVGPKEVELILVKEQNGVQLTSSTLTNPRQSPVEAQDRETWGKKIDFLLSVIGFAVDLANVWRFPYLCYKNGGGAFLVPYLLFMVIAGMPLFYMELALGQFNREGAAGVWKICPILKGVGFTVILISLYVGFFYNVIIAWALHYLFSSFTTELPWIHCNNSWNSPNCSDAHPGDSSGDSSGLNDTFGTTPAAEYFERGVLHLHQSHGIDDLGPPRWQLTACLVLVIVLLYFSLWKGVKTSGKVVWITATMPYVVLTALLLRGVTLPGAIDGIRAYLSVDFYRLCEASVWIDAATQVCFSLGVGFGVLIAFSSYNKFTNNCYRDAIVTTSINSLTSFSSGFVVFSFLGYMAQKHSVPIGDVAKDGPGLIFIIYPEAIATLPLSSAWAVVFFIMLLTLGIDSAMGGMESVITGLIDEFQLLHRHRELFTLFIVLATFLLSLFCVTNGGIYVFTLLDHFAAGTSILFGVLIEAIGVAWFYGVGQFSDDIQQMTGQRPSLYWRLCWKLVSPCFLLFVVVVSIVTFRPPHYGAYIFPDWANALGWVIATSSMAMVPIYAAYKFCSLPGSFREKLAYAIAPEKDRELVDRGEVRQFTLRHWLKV

| SMILES | IC50 (hDAT) [nM] | IC50 (hSERT) [nM] | minimum effective dose in the mouse tail suspension study (Male Swiss Webster mice) [mg/kg] |
| --- | --- | --- | --- |
| CC1(C)NCC(c2ccc(Cl)c(Cl)c2)c2ccc(-c3ccc(C(F)(F)F)nn3)cc21 (single isomer, unassigned) [Example 10, 4-(3,4-dichlorophenyl)-7-(6-(trifluoromethyl)pyridazin-3-yl)-1,1-dimethyl-1,2,3,4-tetrahydroisoquinoline] | 28 | 26 |  |
| Clc1ccc(C2CNCc3cc(-c4ccc5ncnn5c4)ccc32)cc1Cl (stereo not drawn) [Example 36, 7-([1,2,4]triazolo[1,5-a]pyridin-6-yl)-4-(3,4-dichlorophenyl)-1,2,3,4-tetrahydroisoquinoline] |  |  | 10 |
